SMILES strings stand for the structures.

The target in this assay is SARS-CoV-2 Papain like protease (PLpro) (Severe acute respiratory syndrome coronavirus 2 (2019-nCoV) (SARS-CoV-2), UniProt P0DTD1). Kind of assay: Papain Like Protease (PLpro) biochemical assay with profluorogenic substrate Z-RLRGG-AMC. The settings on record: SARS-CoV-2 PLpro 6.25 nM, 25 μM Z-RLRGG-AMC substrate, 60 minute reaction; read-out: IC50.

The term IC50 denotes the point on the concentration scale where inhibition reaches its midpoint. As for `Cc1cc(COCc2cscn2)ccc1C(=O)NC1(c2cc(-c3cc(C(=O)N(C)CCN(C)C)n[nH]3)nc3ccccc23)CC1` [Example 329, N-(2-(dimethylamino)ethyl)-N-methyl-5-(4-(1-(2-methyl-4-((thiazol-4-ylmethoxy)methyl)benzamido)cyclopropyl)quinolin-2-yl)-1H-pyrazole-3-carboxamide], the IC50 was less than 1 nM.

For the compound `Cc1cc(COCc2ncsc2CO)ccc1C(=O)NC1(c2cc(-c3cnn(C)c3)nc3ccccc23)CC1` [Example 330, 4-(((5-(hydroxymethyl)thiazol-4-yl)methoxy)methyl)-2-methyl-N-(1-(2-(1-methyl-1H-pyrazol-4-yl)quinolin-4-yl)cyclopropyl)benzamide], the half-maximal inhibitory concentration (IC50) was less than 1 nM.

Turning to `Cc1cc(COCc2cscn2)ccc1C(=O)NC1(c2cc(-c3cnn(CS(C)(=O)=O)c3)nc3ccccc23)CC1` [Example 341, 2-methyl-N-(1-(2-(1-((methylsulfonyl)methyl)-1H-pyrazol-4-yl)quinolin-4-yl)cyclopropyl)-4-((thiazol-4-ylmethoxy)methyl)benzamide], the IC50 is less than 1 nM.

On to `Cc1cc(COCc2cscn2)ccc1C(=O)NC1(c2cc(-c3cnn(CC(=O)N(C)C)c3)nc3ccccc23)CC1` [Example 342, N-(1-(2-(1-(2-(dimethylamino)-2-oxoethyl)-1H-pyrazol-4-yl)quinolin-4-yl)cyclopropyl)-2-methyl-4-((thiazol-4-ylmethoxy)methyl)benzamide], for which the IC50 is less than 1 nM.

Consider `Cc1cc(COCc2cscn2)ccc1C(=O)NC1(c2cc(-c3cc(C(=O)N(C)C)n[nH]3)nc3ccccc23)CC1` [Example 343, N,N-dimethyl-5-(4-(1-(2-methyl-4-((thiazol-4-ylmethoxy)methyl)benzamido)cyclopropyl)quinolin-2-yl)-1H-pyrazole-3-carboxamide], for which the IC50 was less than 1 nM.

As for `Cc1cc(COCc2cocn2)ccc1C(=O)NC1(c2cc(-c3cnn(C)c3)nc3ccccc23)CC1` [Example 344, 2-methyl-N-(1-(2-(1-methyl-1H-pyrazol-4-yl)quinolin-4-yl)cyclopropyl)-4-((oxazol-4-ylmethoxy)methyl)benzamide], the IC50 is less than 1 nM.

Regarding `Cc1cc(COCc2cocn2)ccc1C(=O)NC1(c2cc(-c3cnn(C)c3)cc3ncccc23)CC1` [Example 345, 2-methyl-N-(1-(7-(1-methyl-1H-pyrazol-4-yl)quinolin-5-yl)cyclopropyl)-4-((oxazol-4-ylmethoxy)methyl)benzamide], the IC50 was less than 1 nM.

Consider `Cc1cc(COCc2cocn2)ccc1C(=O)NC1(c2cc(-c3cc(C(=O)N(C)C)n[nH]3)nc3ccccc23)CC1` [Example 346, N,N-dimethyl-5-(4-(1-(2-methyl-4-((oxazol-4-ylmethoxy)methyl)benzamido)cyclopropyl)quinolin-2-yl)-1H-pyrazole-3-carboxamide], for which the IC50 is less than 1 nM.

Regarding `CNC(=O)c1cc(-c2cc(C3(NC(=O)c4ccc(COCc5cscn5)cc4C)CC3)c3ccccc3n2)[nH]n1` [Example 347, N-methyl-5-(4-(1-(2-methyl-4-((thiazol-4-ylmethoxy)methyl)benzamido)cyclopropyl)quinolin-2-yl)-1H-pyrazole-3-carboxamide], the IC50 is less than 1 nM.

Regarding `Cc1ccc2c(C3(NC(=O)c4ccc(COCc5cocn5)cc4C)CC3)cc(-c3cnn(C)c3)cc2n1` [Example 348, 2-methyl-N-(1-(2-methyl-7-(1-methyl-1H-pyrazol-4-yl)quinolin-5-yl)cyclopropyl)-4-((oxazol-4-ylmethoxy)methyl)benzamide], the IC50 was less than 1 nM.

`Cc1cc(COCc2cscn2)ccc1C(=O)NC1(c2cc(-c3cc(C(N)=O)n[nH]3)nc3ccccc23)CC1` [Example 349, 5-(4-(1-(2-methyl-4-((thiazol-4-ylmethoxy)methyl)benzamido)cyclopropyl)quinolin-2-yl)-1H-pyrazole-3-carboxamide]: the half-maximal inhibitory concentration (IC50) was less than 1 nM.

As for `Cc1cc(COCc2cocn2)ccc1C(=O)NC1(c2cc(-c3cc(C(=O)N(C)C)n[nH]3)cc3ncccc23)CC1` [Example 350, N,N-dimethyl-5-(5-(1-(2-methyl-4-((oxazol-4-ylmethoxy)methyl)benzamido)cyclopropyl)quinolin-7-yl)-1H-pyrazole-3-carboxamide], the concentration for half-maximal inhibition (IC50) was less than 1 nM.

Take `Cc1cc(COCc2cscn2)ccc1C(=O)NC1(c2cc(-c3cc(C(=O)N(C)C)n[nH]3)cc3ncccc23)CC1` [Example 351, N,N-dimethyl-5-(5-(1-(2-methyl-4-((thiazol-4-ylmethoxy)methyl)benzamido)cyclopropyl)quinolin-7-yl)-1H-pyrazole-3-carboxamide]: the half-maximal inhibitory concentration (IC50) was less than 1 nM.

`Cc1cc(COCc2cscn2)ccc1C(=O)NC1(c2cc(-c3cnn(CC(N)=O)c3)nc3ccccc23)CC1` [Example 352, N-(1-(2-(1-(2-amino-2-oxoethyl)-1H-pyrazol-4-yl)quinolin-4-yl)cyclopropyl)-2-methyl-4-((thiazol-4-ylmethoxy)methyl)benzamide]: the IC50 was less than 1 nM.

`COCC(OCc1cscn1)c1ccc(C(=O)NC2(c3cc(-c4cnn(C)c4)cc4nc(C)ccc34)CC2)c(C)c1` (stereo not shown) [Example 353, 4-(2-methoxy-1-(thiazol-4-ylmethoxy)ethyl)-2-methyl-N-(1-(2-methyl-7-(1-methyl-1H-pyrazol-4-yl)quinolin-5-yl)cyclopropyl)benzamide]: the IC50 is less than 1 nM.

On to `Cc1cc(COCc2cscn2)ccc1C(=O)NC1(c2cc(-c3cnn(C)c3)cc3nc(C(C)(C)O)ccc23)CC1` [Example 354, N-(1-(2-(2-hydroxypropan-2-yl)-7-(1-methyl-1H-pyrazol-4-yl)quinolin-5-yl)cyclopropyl)-2-methyl-4-((thiazol-4-ylmethoxy)methyl)benzamide], for which the IC50 is less than 1 nM.

As to `Cc1cc(COCc2cscn2)ccc1C(=O)NC1(c2cc(-c3cc(C(=O)N(C)CC(C)(C)O)n[nH]3)nc3ccccc23)CC1` [Example 357, N-(2-hydroxy-2-methylpropyl)-N-methyl-5-(4-(1-(2-methyl-4-((thiazol-4-ylmethoxy)methyl)benzamido)cyclopropyl)quinolin-2-yl)-1H-pyrazole-3-carboxamide], the IC50 is less than 1 nM.

For the compound `Cc1cc(COCc2cscn2)ccc1C(=O)NC1(c2cc(-c3cnn(C)c3)cc3nc(O)ccc23)CC1` [Example 358, N-(1-(2-hydroxy-7-(1-methyl-1H-pyrazol-4-yl)quinolin-5-yl)cyclopropyl)-2-methyl-4-((thiazol-4-ylmethoxy)methyl)benzamide], the IC50 is less than 1 nM.

Regarding `Cc1cc(COCc2cscn2)ccc1C(=O)NC1(c2cc(-c3cnn(CCC(=O)N(C)C)c3)nc3ccccc23)CC1` [Example 362], the IC50 is less than 1 nM.

`Cc1cc(COCc2cscn2)ccc1C(=O)NC1(c2cc(-c3cnn(C(C)(C)C(=O)N(C)C)c3)nc3ccccc23)CC1` [Example 363]: the IC50 is less than 1 nM.

For `CCN(C)C(=O)Cn1cc(-c2cc(C3(NC(=O)c4ccc(COCc5cscn5)cc4C)CC3)c3ccccc3n2)cn1` [Example 364], the IC50 was less than 1 nM.

Consider `Cc1cc(COCc2ccccn2)ccc1C(=O)NC1(c2cc(-c3cnn(CC(=O)N(C)C)c3)nc3ccccc23)CC1` [Example 366, N-(1-(2-(1-(2-(dimethylamino)-2-oxoethyl)-1H-pyrazol-4-yl)quinolin-4-yl)cyclopropyl)-2-methyl-4-((pyridin-2-ylmethoxy)methyl)benzamide], for which the 50% inhibitory concentration (IC50) is less than 1 nM.

The values are drawn from patent US20240245673A1, “Papain-like protease (PLpro) inhibitors” (Pfizer Inc., priority 2022, published 2024).
